# Test results from US11970498B2, “CDK2 inhibitors” (BLUEPRINT MEDICINES CORPORATION, priority 2021, dated 2024).
# How the values were obtained:
# CDK2/Cyclin E = CDK2/Cyclin E (Homo sapiens, UniProt P24941); experiment: CDK2/Cyclin E biochemical phosphorylation assay (Caliper mobility shift); conditions: apparent IC50; 1.0 mM ATP or ATP Km; 1.25 nM enzyme; 25° C.; read-out: CDK2/cyclin E1 IC50
# Outline: (§1)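 7.5 µM 5-FAM-QSPKKG-CONH2 peptide phosphorylated by CDK2/Cyclin E (1.25 nM) or GST-CDK1/Cyclin B1 (1.5 nM) at 1.0 mM ATP or ATP Km, in HEPES pH 7.5, MgCl2, Brij-35, DTT, 1% DMSO, 25 °C to 10–20% conversion. EDTA stop; Caliper mobility-shift readout; apparent IC50 from percent activity vs log concentration.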
# CDK1/Cyclin B1, GST-tag = target: T1, CDK1/Cyclin B1, GST-tag (Homo sapiens, UniProt P06493); experiment: CDK1/Cyclin B1 biochemical phosphorylation assay (Caliper mobility shift); conditions: apparent IC50; 1.0 mM ATP or ATP Km; 1.5 nM enzyme; 25° C.
# T1 construct: GST
# T1 sequence (P06493 whole entry): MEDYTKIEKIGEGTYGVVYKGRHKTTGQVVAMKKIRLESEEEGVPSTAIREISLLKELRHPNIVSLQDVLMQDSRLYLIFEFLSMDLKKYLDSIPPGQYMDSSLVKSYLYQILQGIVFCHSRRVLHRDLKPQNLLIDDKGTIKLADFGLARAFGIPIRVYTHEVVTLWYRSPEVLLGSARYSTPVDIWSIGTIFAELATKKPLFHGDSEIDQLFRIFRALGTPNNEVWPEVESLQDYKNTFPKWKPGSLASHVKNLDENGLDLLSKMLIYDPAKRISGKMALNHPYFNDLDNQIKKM
# T1 sequence (P14635 whole entry partner): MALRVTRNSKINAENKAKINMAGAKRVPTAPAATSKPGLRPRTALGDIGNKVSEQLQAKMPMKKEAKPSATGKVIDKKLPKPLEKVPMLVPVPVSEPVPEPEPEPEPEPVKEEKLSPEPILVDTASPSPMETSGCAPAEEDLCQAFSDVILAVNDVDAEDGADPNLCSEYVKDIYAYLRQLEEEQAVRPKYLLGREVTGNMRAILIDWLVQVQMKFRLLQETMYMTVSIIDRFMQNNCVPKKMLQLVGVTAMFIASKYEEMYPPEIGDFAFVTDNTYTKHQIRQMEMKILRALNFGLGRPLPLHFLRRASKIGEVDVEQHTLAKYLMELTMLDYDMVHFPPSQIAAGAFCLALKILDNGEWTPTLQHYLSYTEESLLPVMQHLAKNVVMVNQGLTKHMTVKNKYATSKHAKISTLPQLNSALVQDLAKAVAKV
# Outline: as §1
SMILES,IC50 (CDK2/Cyclin E),"IC50 (CDK1/Cyclin B1, GST-tag)"
"CC[C@@H]([C@H](C)O)n1ncc2ncc(Nc3cc(OC(F)F)[nH]n3)nc21 (single isomer, unassigned) [Example 6, (2S,3S)-3-(6-((5-(difluoromethoxy)-1H-pyrazol-3-yl)amino)-1H-pyrazolo[3,4-b]pyrazin-1-yl)pentan-2-ol or (2S,3R)-3-(6-((5-(difluoromethoxy)-1H-pyrazol-3-yl)amino)-1H-pyrazolo[3,4-b]pyrazin-1-yl)pentan-2-ol]",30 to 100 nM,≥ 500 nM
"Fc1cccc(Cn2ncc3ncc(Nc4cc(OC(F)F)[nH]n4)nc32)c1 [Example 39, N-(5-(difluoromethoxy)-1H-pyrazol-3-yl)-1-(3-fluorobenzyl)-1H-pyrazolo[3,4-b]pyrazin-6-amine]",20 to 30 nM,≥ 500 nM
"FC[C@H](c1cccnc1)n1ncc2ncc(Nc3cc(OC(F)F)[nH]n3)nc21 (single isomer, unassigned) [Example 18, (S)—N-(5-(difluoromethoxy)-1H-pyrazol-3-yl)-1-(2-fluoro-1-(pyridin-3-yl)ethyl)-1H-pyrazolo[3,4-b]pyrazin-6-amine or (R)—N-(5-(difluoromethoxy)-1H-pyrazol-3-yl)-1-(2-fluoro-1-(pyridin-3-yl)ethyl)-1H-pyrazolo[3,4-b]pyrazin-6-amine]",20 to 30 nM,≥ 500 nM
"C[C@@H](c1ncccc1F)n1ncc2ncc(Nc3cc(OC(F)F)[nH]n3)nc21 [Example 50, (S)-N-(5-(difluoromethoxy)-1H-pyrazol-3-yl)-1-(1-(3-fluoropyridin-2-yl)ethyl)-1H-pyrazolo[3,4-b]pyrazin-6-amine]",≤ 10 nM,≥ 500 nM
"C[C@@H]1C[C@H](Cn2ncc3ncc(Nc4cc(OC(F)F)[nH]n4)nc32)C[C@H](C)O1 [Example 65, N-(5-(difluoromethoxy)-1H-pyrazol-3-yl)-1-(((2R,4r,6S)-2,6-dimethyltetrahydro-2Hpyran-4-yl)methyl)-1Hpyrazolo[3,4-b]pyrazin-6-amine]",≤ 10 nM,< 100 nM
"FC[C@@H](c1ccccn1)n1ncc2ncc(Nc3cc(OC(F)F)[nH]n3)nc21 (single isomer, unassigned) [Example 15, (R)—N-(5-(difluoromethoxy)-1H-pyrazol-3-yl)-1-(2-fluoro-1-(pyridin-2-yl)ethyl)-1H-pyrazolo[3,4-b]pyrazin-6-amine or (S)—N-(5-(difluoromethoxy)-1H-pyrazol-3-yl)-1-(2-fluoro-1-(pyridin-2-yl)ethyl)-1H-pyrazolo[3,4-b]pyrazin-6-amine]",30 to 100 nM,≥ 500 nM
"C[C@@H](c1cccc(F)c1)n1ncc2ncc(Nc3cc(OC(F)F)[nH]n3)nc21 [Example 43, (S)-N-(5-(difluoromethoxy)-1H-pyrazol-3-yl)-1-(1-(3-fluorophenyl)ethyl)-1H-pyrazolo[3,4-b]pyrazin-6-amine]",≤ 10 nM,≥ 500 nM
"FC[C@@H](C1CCOCC1)n1ncc2ncc(Nc3cc(OC(F)F)[nH]n3)nc21 (single isomer, unassigned) [Example 31]",≤ 10 nM,< 100 nM
"C[C@@H](c1cncs1)n1ncc2ncc(Nc3cc(OC(F)F)[nH]n3)nc21 [Example 58, (S)-N-(5-(difluoromethoxy)-1H-pyrazol-3-yl)-1-(1-(thiazol-5-yl)ethyl)-1H-pyrazolo[3,4-b]pyrazin-6-amine]",≤ 10 nM,≥ 500 nM
"C[C@@H](C1CCOCC1)n1nc(C#N)c2ncc(Nc3cc(OC(F)F)[nH]n3)nc21 [Example 64, (S)-6-((5-(difluoromethoxy)-1H-pyrazol-3-yl)amino)-1-(1-(tetrahydro-2H-pyran-4-yl)ethyl)-1H-pyrazolo[3,4-b]pyrazine-3-carbonitrile]",20 to 30 nM,≥ 500 nM
"COc1cc(Nc2cnc3cnn([C@@H](C)c4cncs4)c3n2)n[nH]1 [Example 74, (S)-N-(5-methoxy-1H-pyrazol-3-yl)-1-(1-(thiazol-5-yl)ethyl)-1H-pyrazolo[3,4-b]pyrazin-6-amine]",20 to 30 nM,≥ 500 nM

# The next lines start with the values.
IC50 (CDK2/Cyclin E),"IC50 (CDK1/Cyclin B1, GST-tag)",SMILES
10 to 20 nM,≥ 500 nM,"FC(F)Oc1cc(Nc2cnc3cnn([C@H](c4ccccn4)C(F)F)c3n2)n[nH]1 (single isomer, unassigned) [Example 150, (S)-1-(2,2-difluoro-1-(pyridin-2-yl)ethyl)-N-(5-(difluoromethoxy)-1H-pyrazol-3-yl)-1H-pyrazolo[3,4-b]pyrazin-6-amine or (R)-1-(2,2-difluoro-1-(pyridin-2-yl)ethyl)-N-(5-(difluoromethoxy)-1H-pyrazol-3-yl)-1H-pyrazolo[3,4-b]pyrazin-6-amine]"
30 to 100 nM,≥ 500 nM,"C[C@@H](CCO)n1ncc2ncc(Nc3cc(OC(F)F)[nH]n3)nc21 (single isomer, unassigned) [Example 205, (S)-3-(6-((5-(difluoromethoxy)-1H-pyrazol-3-yl)amino)-1H-pyrazolo[3,4-b]pyrazin-1-yl)butan-1-ol or (R)-3-(6-((5-(difluoromethoxy)-1H-pyrazol-3-yl)amino)-1H-pyrazolo[3,4-b]pyrazin-1-yl)butan-1-ol]"
30 to 100 nM,≥ 500 nM,"FC(F)Oc1cc(Nc2cnc3cnn([C@H](c4ccccc4)C4COC4)c3n2)n[nH]1 (single isomer, unassigned) [Example 161, (S)-N-(5-(difluoromethoxy)-1H-pyrazol-3-yl)-1-(oxetan-3-yl(phenyl)methyl)-1H-pyrazolo[3,4-b]pyrazin-6-amine or (R)-N-(5-(difluoromethoxy)-1H-pyrazol-3-yl)-1-(oxetan-3-yl(phenyl)methyl)-1H-pyrazolo[3,4-b]pyrazin-6-amine]"
> 100 nM,≥ 500 nM,"O[C@H]1CC[C@@H](n2ncc3ncc(Nc4cc(OC(F)F)[nH]n4)nc32)C1 (single isomer, unassigned) [Example 209]"
≤ 10 nM,≥ 500 nM,"C[C@@H](c1ccc(F)nc1)n1ncc2ncc(Nc3cc(OC(F)F)[nH]n3)nc21 (single isomer, unassigned) [Example 151, (S)-N-(5-(difluoromethoxy)-1H-pyrazol-3-yl)-1-(1-(6-fluoropyridin-3-yl)ethyl)-1H-pyrazolo[3,4-b]pyrazin-6-amine or (R)-N-(5-(difluoromethoxy)-1H-pyrazol-3-yl)-1-(1-(6-fluoropyridin-3-yl)ethyl)-1H-pyrazolo[3,4-b]pyrazin-6-amine]"
> 100 nM,≥ 500 nM,"COc1cc(Nc2cnc3cnn([C@@H](C(F)F)C4CCOCC4)c3n2)n[nH]1 (single isomer, unassigned) [Example 192, (R)-1-(2,2-difluoro-1-(tetrahydro-2H-pyran-4-yl)ethyl)-N-(5-methoxy-1H-pyrazol-3-yl)-1H-pyrazolo[3,4-b]pyrazin-6-amine or (S)-1-(2,2-difluoro-1-(tetrahydro-2H-pyran-4-yl)ethyl)-N-(5-methoxy-1H-pyrazol-3-yl)-1H-pyrazolo[3,4-b]pyrazin-6-amine]"
≤ 10 nM,≥ 500 nM,"COc1cc(Nc2cnc3cnn(CC4CCOCC4)c3n2)n[nH]1 [Example 92, N-(5-methoxy-1H-pyrazol-3-yl)-1-((tetrahydro-2H-pyran-4-yl)methyl)-1H-pyrazolo[3,4-b]pyrazin-6-amine]"
≤ 10 nM,≥ 500 nM,"C[C@@H](c1ccccc1)n1ncc2ncc(Nc3cc(OC(F)F)[nH]n3)nc21 [Example 93, (S)-N-(5-(difluoromethoxy)-1H-pyrazol-3-yl)-1-(1-phenylethyl)-1H-pyrazolo[3,4-b]pyrazin-6-amine]"
20 to 30 nM,≥ 500 nM,"FC(F)Oc1cc(Nc2cnc3cnn(CC4(C(F)F)CCOCC4)c3n2)n[nH]1 [Example 122, N-(5-(difluoromethoxy)-1H-pyrazol-3-yl)-1-((4-(difluoromethyl)tetrahydro-2H-pyran-4-yl)methyl)-1H-pyrazolo[3,4-b]pyrazin-6-amine]"
20 to 30 nM,≥ 500 nM,"CC(C)(C)n1ncc2ncc(Nc3cc(OC(F)F)[nH]n3)nc21 [Example 79, 1-(tert-butyl)-N-(5-(difluoromethoxy)-1H-pyrazol-3-yl)-1H-pyrazolo[3,4-b]pyrazin-6-amine]"
> 100 nM,≥ 500 nM,"N#C[C@H]1C[C@H](Cn2ncc3ncc(Nc4cc(OC(F)F)[nH]n4)nc32)C1 (single isomer, unassigned) [Example 190, (1r,3r)-3-((6-((5-(difluoromethoxy)-1H-pyrazol-3-yl)amino)-1H-pyrazolo[3,4-b]pyrazin-1-yl)methyl)cyclobutane-1-carbonitrile or (1s,3s)-3-((6-((5-(difluoromethoxy)-1H-pyrazol-3-yl)amino)-1H-pyrazolo[3,4-b]pyrazin-1-yl)methyl)cyclobutane-1-carbonitrile]"
≤ 10 nM,100 to 500 nM,"N#C[C@H]1C[C@H](Cn2ncc3ncc(Nc4cc(OC(F)F)[nH]n4)nc32)C1 (single isomer, unassigned) [Example 191, (1s,3s)-3-((6-((5-(difluoromethoxy)-1H-pyrazol-3-yl)amino)-1H-pyrazolo[3,4-b]pyrazin-1-yl)methyl)cyclobutane-1-carbonitrile or (1r,3r)-3-((6-((5-(difluoromethoxy)-1H-pyrazol-3-yl)amino)-1H-pyrazolo[3,4-b]pyrazin-1-yl)methyl)cyclobutane-1-carbonitrile]"
20 to 30 nM,≥ 500 nM,"FC(F)Oc1cc(Nc2cnc3cnn(C[C@H]4CCCNC4)c3n2)n[nH]1 [Example 200, (S)—N-(5-(difluoromethoxy)-1H-pyrazol-3-yl)-1-(piperidin-3-ylmethyl)-1H-pyrazolo[3,4-b]pyrazin-6-amine]"
≤ 10 nM,100 to 500 nM,"FC(F)Oc1cc(Nc2cnc3cnn(CC4CCC4)c3n2)n[nH]1 [Example 101, 1-(cyclobutylmethyl)-N-(5-(difluoromethoxy)-1H-pyrazol-3-yl)-1H-pyrazolo[3,4-b]pyrazin-6-amine]"
